Paper PMC10235067, “Increased renal elimination of endogenous and synthetic pyrimidine nucleosides in concentrative nucleoside transporter 1 deficient mice” (Nature Communications, 2023)
Several values for one entry are separate records, joined by “and”; a condition that tells them apart may be missing. Identical values can stand only once. Counter-ions that a name gives are not always drawn.

Tests used:
[1] = Gemcitabine plasma pharmacokinetics in Slc28a1+/+ and Slc28a1-/- mice; conditions: for half-life: T1/2 (terminal half-life); for Vd: Vss
[2] = system: KPC cells; assay: Survival of mice with orthotopic syngeneic KPC pancreatic tumors treated with dFdC
[3] = system: KPC cells; assay: Tumor burden by bioluminescent imaging after orthotopic implantation of KPC-LUC cells; conditions: orthotopic KPC-LUC tumors, Gemcitabine group, Fig. 6C source data
[4] = Gemcitabine in plasma, WT mice, iv gemcitabine 50mg/kg, per mouse
[5] = female, mouse, plasma, iv, 50 mg/kg, Slc28a1+/+ mice, plasma, single i.v. dFdC 50 mg/kg
[6] = female, mouse, plasma, iv, 50 mg/kg, Slc28a1-/- mice, single i.v. dFdC 50 mg/kg

Nc1ccn([C@@H]2O[C@H](CO)[C@@H](O)C2(F)F)c(=O)n1 [dFdC, Gemcitabine hydrochloride, reference compound]
AUC_%Extrap_obs [1, 4]: 9.702% and 18.5437% and 0.7839% and 0.5327% and 0.8134% and 0.9221% | AUC_%Extrap_pred [1, 4]: 10.3129% and 18.7708% and 0.3382% and 0.2157% and 0.3062% and 0.3788% | AUCall [1, 4]: 81617.2 ng·min/mL and 71149.3 ng·min/mL and 92539.9 ng·min/mL and 85061.6 ng·min/mL and 98831 ng·min/mL | AUClast [1, 4]: 81617.2 ng·min/mL and 69657.4 ng·min/mL and 91120.1 ng·min/mL and 83197 ng·min/mL and 96469.4 ng·min/mL | AUClast_D [1, 4]: 1212.13 kg·ng·min/mL/mg and 1632.34 kg·ng·min/mL/mg and 1393.15 kg·ng·min/mL/mg and 1822.4 kg·ng·min/mL/mg and 1663.94 kg·ng·min/mL/mg and 1929.39 kg·ng·min/mL/mg | AUMCINF_obs [1, 4]: 5069956 min*min*ng/mL and 20471433 min*min*ng/mL and 1064873 min*min*ng/mL and 1254821 min*min*ng/mL and 1108567 min*min*ng/mL and 1728699 min*min*ng/mL | AUMCINF_pred [1, 4]: 5292862 min*min*ng/mL and 20755711 min*min*ng/mL and 1020250 min*min*ng/mL and 1213897 min*min*ng/mL and 1047980 min*min*ng/mL and 1652866 min*min*ng/mL | AUMC_%Extrap_obs [1, 4]: 62.651% and 92.1199% and 7.346% and 5.469% and 8.737% and 7.417% | AUMC_%Extrap_pred [1, 4]: 64.2239% and 92.2278% and 3.293% and 2.282% and 3.461% and 3.17% | AUMClast [1, 4]: 1893578 min*min*ng/mL and 1613171 min*min*ng/mL and 986649 min*min*ng/mL and 1186197 min*min*ng/mL and 1011712 min*min*ng/mL and 1600474 min*min*ng/mL | C0 [1, 4]: 1738.74 ng/mL and 4426.87 ng/mL and 4597.66 ng/mL and 7279.69 ng/mL and 6681.38 ng/mL and 5877.84 ng/mL | Cl_obs [1, 4]: 499.014 mL/min/kg and 712.172 mL/min/kg and 545.803 mL/min/kg and 596.095 mL/min/kg and 513.519 mL/min/kg | Cl_pred [1, 4]: 739.914 mL/min/kg and 497.623 mL/min/kg and 715.371 mL/min/kg and 547.543 mL/min/kg and 599.143 mL/min/kg and 516.335 mL/min/kg | Clast [1, 4]: 26.282 ng/mL and 23.9761 ng/mL and 24.8646 ng/mL and 23.6637 ng/mL and 31.0775 ng/mL and 39.3598 ng/mL | Clast_pred [1, 4]: 28.1263 ng/mL and 24.3375 ng/mL and 10.6806 ng/mL and 9.552 ng/mL and 11.6372 ng/mL and 16.0822 ng/mL | Cmax_D [1, 4]: 35.2165 kg·ng/mL/mg and 78.8031 kg·ng/mL/mg and 72.4804 kg·ng/mL/mg and 90.8107 kg·ng/mL/mg and 83.992 kg·ng/mL/mg and 78.0677 kg·ng/mL/mg | HL_Lambda_z [1, 4]: 171.744 min and 537.158 min and 15.3422 min and 14.2945 min and 15.2178 min and 15.8118 min | Lambda_z [1, 4]: 0.004036 min⁻¹ and 0.00129 min⁻¹ and 0.04518 min⁻¹ and 0.04849 min⁻¹ and 0.04555 min⁻¹ and 0.04384 min⁻¹ | MRTINF_obs [1, 4]: 75.5375 min and 204.311 min and 15.1675 min and 13.6977 min and 13.2162 min and 17.7544 min | MRTINF_pred [1, 4]: 78.3253 min and 206.57 min and 14.5971 min and 13.2932 min and 12.5578 min and 17.0687 min | MRTlast [1, 4]: 31.2438 min and 19.7651 min and 14.1643 min and 13.018 min and 12.1604 min and 16.5905 min | Tlast [1, 4]: 240 min and 120 min | Tmax [1, 4]: 15 min | Vss_obs [1, 4]: 56271.8 mL/kg and 101954 mL/kg and 10801.8 mL/kg and 7476.26 mL/kg and 7878.12 mL/kg and 9117.23 mL/kg | Vss_pred [1, 4]: 57954 mL/kg and 102794 mL/kg and 10442.4 mL/kg and 7278.61 mL/kg and 7523.93 mL/kg and 8813.15 mL/kg | Vz_obs [1, 4]: 184580 mL/kg and 386714 mL/kg and 15763.3 mL/kg and 11255.9 mL/kg and 13087 mL/kg and 11714.2 mL/kg | Vz_pred [1, 4]: 183332 mL/kg and 385636 mL/kg and 15834.1 mL/kg and 11291.8 mL/kg and 13154 mL/kg and 11778.4 mL/kg | AUC (Last) ([1]; Slc28a1+/+ mice, plasma, single i.v. dFdC 50 mg/kg): 81307.3 ± 4123.2 ng x min/mL and 81307 ng x min/mL | AUC (Last) ([1]; Slc28a1-/- mice, plasma, single i.v. dFdC 50 mg/kg): 52203.2 ± 3611.3 ng x min/mL and 52203 ng x min/mL | CL (systemic clearance) ([1]; Slc28a1-/- mice, single i.v. dFdC 50 mg/kg): 950 mL/min/kg | concentration at 10 min ([1]; female, mouse, plasma, intravenous, 50 mg/kg, Cp (Gemcitabine), KO mice, single iv gemcitabine 50mg/kg, 10 min): 1940 ng/mL | concentration at 60 min ([1]; female, mouse, plasma, intravenous, 50 mg/kg, Cp (Gemcitabine), KO mice, single iv gemcitabine 50mg/kg, 60 min): 28.8 ng/mL | AUC(0-inf) ([1]; female, mouse, plasma, iv, 50 mg/kg, AUCINF_obs, Gemcitabine in plasma, WT mice, iv gemcitabine 50mg/kg, per mouse): 1120 ng·h/mL | AUC(0-inf) ([1]; female, mouse, plasma, iv, 50 mg/kg, AUCINF_pred, Gemcitabine in plasma, WT mice, iv gemcitabine 50mg/kg, per mouse): 1130 ng·h/mL | AUC ([1]; female, mouse, plasma, iv, 50 mg/kg, AUCall, Gemcitabine in plasma, WT mice, iv gemcitabine 50mg/kg, per mouse): 1010 ng·h/mL | AUC(0-t) ([1]; female, mouse, plasma, iv, 50 mg/kg, AUClast, Gemcitabine in plasma, WT mice, iv gemcitabine 50mg/kg, per mouse): 1010 ng·h/mL | clearance ([1]; female, mouse, plasma, iv, 50 mg/kg, CL (systemic clearance), Slc28a1+/+ mice, single i.v. dFdC 50 mg/kg): 607 mL/min/kg | clearance ([1]; female, mouse, plasma, iv, 50 mg/kg, CL (systemic clearance), Slc28a1-/- mice, single i.v. dFdC 50 mg/kg): 951 ± 167 mL/min/kg | clearance ([1]; female, mouse, plasma, iv, 50 mg/kg, Cl_obs, Gemcitabine in plasma, WT mice, iv gemcitabine 50mg/kg, per mouse): 745 mL/min/kg | Cmax [1, 5]: 3650 ± 408 ng/mL | Cmax [1, 6]: 3120 ± 335 ng/mL | half-life [1, 5]: 13.6 ± 0.67 min | half-life [1, 6]: 11.5 ± 0.81 min | Tmax ([1]; female, mouse, plasma, iv, 50 mg/kg, Tmax, Slc28a1+/+ mice, plasma, single i.v. dFdC 50 mg/kg): ~5 min | Tmax ([1]; female, mouse, plasma, iv, 50 mg/kg, Tmax, Slc28a1-/- mice, single i.v. dFdC 50 mg/kg): ~5 min | Vd ([1]; female, mouse, plasma, iv, 50 mg/kg, Slc28a1+/+ mice, single i.v. dFdC 50 mg/kg): 14.4 L/kg | Vd [1, 6]: 14.1 L/kg | Cp (Gemcitabine) ([1]; plasma, KO mice, single iv gemcitabine 50mg/kg, 10 min): 2505.77 ng/mL and 1699.01 ng/mL and 1487.77 ng/mL and 1743.2 ng/mL and 1817.05 ng/mL | Cp (Gemcitabine) ([1]; plasma, KO mice, single iv gemcitabine 50mg/kg, 60 min): 30.3338 ng/mL and 29.5353 ng/mL and 27.3213 ng/mL and 28.2215 ng/mL and 27.5324 ng/mL | Survival, Days (individual mice) ([2]; CNT1 (Slc28a1-/-) Gemcitabine (25mg/ml) group, Fig. 6E source data): 27 days and 32 days and 35 days and 39 days | Survival, Days (individual mice) ([2]; CNT1 (Slc28a1-/-) Gemcitabine (37mg/ml) group, Fig. 6E source data): 30 days and 43 days and 45 days and 46 days | Survival, Days (individual mice) ([2]; CNT1 (Slc28a1-/-) Gemcitabine group, Fig. 6D source data): 26 days and 43 days and 35 days and 23 days and 45 days | Survival event flag (1 = event, 0 = censored), individual mice ([2]; CNT1 + Gemcitabine (Slc28a1-/-), Fig. 6D source data): 1 | Survival event flag (1 = event, 0 = censored), individual mice ([2]; CNT1 Gemcitabine (25mg/ml), Fig. 6E source data, column headed CNT1 + Vehicle): 1 | Survival event flag (1 = event, 0 = censored), individual mice ([2]; CNT1 Gemcitabine (37mg/ml), Fig. 6E source data): 1 | mice remaining healthy at day 45 ([2]; Slc28a1+/+ mice, dFdC 25 mg/kg i.v.): approximately 66% | median overall survival ([2]; Slc28a1+/+ mice, dFdC 25 mg/kg i.v. twice a week, Fig. 6D): > 50 days | day by which all mice died ([2]; Slc28a1-/- mice, dFdC 25 mg/kg i.v.): ≤ 45 days | median overall survival ([2]; Slc28a1-/- mice, dFdC 25 mg/kg i.v. twice a week, Fig. 6D): 39 days | median overall survival ([2]; Slc28a1-/- mice, dFdC 37 mg/kg i.v. twice a week, Fig. 6E): 42 days | Survival event flag (1 = event, 0 = censored), individual mice ([2]; WT + Gemcitabine, Fig. 6D source data): 0 and 1 | Survival, Days (individual mice) ([2]; WT Gemcitabine group, Fig. 6D source data, event flag in WT + Gemcitabine): 50 days and 33 days and 45 days | Tumor burden (bioluminescent imaging signal), individual mice ([3]; day 7, Slc28a1-/- mice): -32133333333 and 23906666667 and -21903333333 and -24593333333 and -34283333333 and 89006666667 | Tumor burden (bioluminescent imaging signal), individual mice ([3]; day 7, wild-type mice): 59739000000 and -37121000000 and -92035000000 and 9139000000 and 52739000000 and 7539000000 | Tumor burden (bioluminescent imaging signal), individual mice ([3]; day 14, Slc28a1-/- mice): 144007000000 and 59806666667 and 55206666667 and 122107000000 and 12746666667 and 52806666667 | Tumor burden (bioluminescent imaging signal), individual mice ([3]; day 14, wild-type mice): 127000000000 and 202000000000 and 71900000000 and 123000000000 and 33800000000 and -44800000000 | Tumor burden (bioluminescent imaging signal), individual mice ([3]; day 21, Slc28a1-/- mice): 903000000000 and 356000000000 and 622000000000 and 1010000000000 and 2710000000000 and 506000000000 | Tumor burden (bioluminescent imaging signal), individual mice ([3]; day 21, wild-type mice): 998000000000 and 735000000000 and 252000000000 and 420000000000 and 526000000000 and 763000000000 | Tumor burden (bioluminescent imaging signal), individual mice ([3]; day 25, Slc28a1-/- mice): 1770000000000 and 1210000000000 and 722000000000 and 1860000000000 and 1930000000000 and 2060000000000 | Tumor burden (bioluminescent imaging signal), individual mice ([3]; day 25, wild-type mice): 1230000000000 and 109000000000 and 355000000000 and 803000000000 and 1440000000000 and 1090000000000
